Results published in PubChem BioAssay (NCI).
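Grown in 96-well plates, cells were treated for 48 hours with each compound at five concentrations. Insufficient inhibition: endpoint recorded as highest concentration tested. At the GI50, growth is halved. TGI marks complete inhibition of growth.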

What was measured:
Assay in all cases: NCI tumour cell line growth inhibition, 48 h
DLD-1 colon = system: DLD-1 colon
DMS 114 small cell lung = system: DMS 114 small cell lung
DMS 273 small cell lung = system: DMS 273 small cell lung
KM20L2 colon = system: KM20L2 colon
LXFL 529 NSCLC = system: LXFL 529 NSCLC
M19-MEL melanoma = system: M19-MEL melanoma
SNB-78 CNS = system: SNB-78 CNS
XF 498 CNS = system: XF 498 CNS
P388 leukemia = system: P388 leukemia
SN12K1 renal = system: SN12K1 renal
RXF-631 renal = system: RXF-631 renal

SMILES | TGI (DLD-1 colon) | TGI (DMS 114 small cell lung) | TGI (DMS 273 small cell lung) | TGI (KM20L2 colon) | TGI (LXFL 529 NSCLC) | TGI (M19-MEL melanoma) | TGI (SNB-78 CNS) | TGI (XF 498 CNS) | TGI (P388 leukemia) | TGI (SN12K1 renal) | TGI (RXF-631 renal) | GI50 (DLD-1 colon) | GI50 (DMS 273 small cell lung) | GI50 (KM20L2 colon) | GI50 (M19-MEL melanoma) | GI50 (P388 leukemia) | GI50 (SN12K1 renal) | GI50 (SNB-78 CNS) | GI50 (XF 498 CNS)
CN/N=C(\C(=O)Nc1ccc([N+](=O)[O-])cc1[N+](=O)[O-])C1NC(=O)NC1=O (stereo not drawn) | > 100 µM | > 100 µM | > 100 µM | > 100 µM | > 100 µM | > 100 µM | > 100 µM | – | – | – | – | – | – | – | – | – | – | – | –
CC(=O)Nc1ccc(/C=C(\NC(=O)c2ccccc2)C(=O)NNS(=O)(=O)c2ccc(C)cc2)cc1 | > 100 µM | – | 34.8 µM | > 100 µM | > 100 µM | > 100 µM | > 100 µM | > 100 µM | – | – | – | – | – | – | – | – | – | – | –
CC(=O)[C@H]1CCC2[C@@H]3CC=C4C(O)C(OS(=O)(=O)O)CC[C@]4(C)C3CC[C@@]21C (stereo partly drawn) | > 100 µM | > 100 µM | > 100 µM | > 100 µM | – | > 100 µM | > 100 µM | – | > 100 µM | > 100 µM | – | – | – | – | – | – | – | – | –
C=C1CC(OC)(C(O)C(=O)N[C@H]2OCO[C@H]3C2O[C@H](C[C@H](O)COC)C(C)(C)C3OC)O[C@H](C)[C@@H]1C (stereo partly drawn) | – | > 0.00772 µM | – | > 0.00772 µM | – | > 0.00772 µM | > 0.00772 µM | > 0.00772 µM | > 0.00772 µM | > 0.00772 µM | – | – | – | – | – | – | – | – | –
CN(CCN(C)C(=O)CCn1ccc(=O)[nH]c1=O)C(=O)CCn1ccc(=O)[nH]c1=O | – | > 100 µM | > 100 µM | > 100 µM | > 100 µM | > 100 µM | > 100 µM | > 100 µM | – | – | – | – | – | – | – | – | – | – | –
O=C1OC(c2ccccc2)=N/C1=C/N1CCCC1C(=O)O (stereo not drawn) | > 100 µM | > 100 µM | > 100 µM | > 100 µM | > 100 µM | > 100 µM | > 100 µM | > 100 µM | – | – | > 100 µM | – | – | – | – | – | – | – | –
c1ccc(COc2cccc3cccnc23)cc1 | > 100 µM | > 100 µM | – | > 100 µM | > 100 µM | > 100 µM | – | > 100 µM | – | – | > 100 µM | – | – | – | – | – | – | – | –
Nc1ccc(-c2nc3ccccc3s2)cc1 | 77.3 µM | 39.1 µM | – | > 100 µM | 33.4 µM | > 100 µM | 98.2 µM | – | – | – | 46.2 µM | – | – | – | – | – | – | – | –
COc1cc(C2(C)SCCCS2)c(I)c(OC)c1OC | > 100 µM | > 100 µM | > 100 µM | > 100 µM | > 100 µM | > 100 µM | > 100 µM | > 100 µM | – | – | > 100 µM | – | – | – | – | – | – | – | –
CCOC(=O)C[n+]1ccc2c([nH]c3cc(OC)ccc32)c1C | > 100 µM | > 100 µM | > 100 µM | > 100 µM | – | > 100 µM | > 100 µM | > 100 µM | > 100 µM | > 100 µM | – | – | – | – | – | – | – | – | –
NC1CCCCC1N.O=S(=O)([O-])CCCN1CCN(CCO)CC1.O=S(=O)([O-])CCCN1CCN(CCO)CC1.[Pt+4] | > 100 µM | – | 19.9 µM | > 100 µM | – | 16.2 µM | > 86.4 µM | 24.6 µM | > 32 µM | > 100 µM | – | 8.44 µM | 1.24 µM | 6.59 µM | 1.18 µM | 0.129 µM | 3.29 µM | 15.8 µM | 1.25 µM
CC1(C)N=C(N)N=C(N)N1c1ccc(OCCCOc2ccccc2)c(Cl)c1 | > 100 µM | 14.3 µM | 1.15 µM | 11.3 µM | – | 15 µM | 18 µM | – | 10.3 µM | 11.2 µM | – | – | – | – | – | – | – | – | –
O=C1OC2C=CC1C1(CCOC1=O)C2 (stereo not drawn) | > 100 µM | > 100 µM | > 100 µM | > 100 µM | > 100 µM | > 100 µM | – | > 100 µM | – | – | – | – | – | – | – | – | – | – | –
